Laboratory results as given in patent US4963565A, “In vivo treatment of mycobacterial infections with 6-cyclo octylamino-5,8-quinoline quinone” (priority 1986, dated 1990).

Assays:
[1] = test system: M. intracellulare (571-8 strain); test: In vivo activity of different doses against acute M. intracellulare infections in Beige mice (Example III); parameters: species or system M. intracellulare (host: Beige mice)
M. intracellulare = test: In vitro activity against serovars of M. intracellulare, radiometric (Bactec) method; format: cell-based
Description: A study of the effect of CQQ on different serovars of M. intracellulare in vitro was performed using the radiometric (Bactec) method. Maximum growth index (GI) of 999 was determined (for control models) in terms of the number of days necessary for the culture to reach this stage. GI is measured using the special instrument which reads the amount of ^14 C labelled CO2 liberated from the strains using the ^14 C labelled substrates.

Mycobacterium leprae = test: Inhibitory activity against Mycobacterium leprae in the macrophage model (3H thymidine uptake); format: cell-based, M. leprae (in human monocyte derived macrophages); parameters: Inhibition of 3H thymidine uptake: dose or concentration left out as unconfirmed
Source text: The effect of CQQ on Mycobacterium leprae, the causative agent for leprosy, was studied using monocyte derived macrophages obtained from human volunteers.
Blood from a healthy volunteer was drawn and monocytes were removed and cultured to the macrophage stage. This required about 7 days. The macrophages were then exposed to M. leprae bacilli obtained from biopsy specimens of leprosy patients. One sample was exposed to CQQ, while other samples were exposed to DDS (diaminodiphenyl sulphone), the standard antileprosy drug, or rifampin, at various concentrations. Macrophages were exposed to radiolabelled tritium (^3 H) labeled thymidine, and its uptake was measured using a liquid scintillation counter. A control model of M. leprae exposed macrophages, which was not treated was used as well. The uptake of thymidine is a measure of antimycobacterial activity.

[2] = 8.0 mcg/ml, serovar 3, strain 7-17
[3] = 8.0 mcg/ml, serovar 3, strain 9-75
[4] = 8.0 mcg/ml, serovar 3, strain 12-1
[5] = 8.0 mcg/ml, serovar 3, strain 971-8
[6] = 8.0 mcg/ml, serovar 4, strain 5-13
[7] = 8.0 mcg/ml, serovar 4, strain 7-55
[8] = 8.0 mcg/ml, serovar 4, strain 8-50
[9] = 8.0 mcg/ml, serovar 4, strain TMC1463
[10] = 8.0 mcg/ml, serovar 9, strain 2-10
[11] = 8.0 mcg/ml, serovar 9, strain 6-38
[12] = 8.0 mcg/ml, serovar 9, strain 7-25
[13] = 8.0 mcg/ml, serovar 9, strain 1784-286
[14] = 8.0 mcg/ml, serovar 14, strain 7-3
[15] = 8.0 mcg/ml, serovar 14, strain 7-43
[16] = 8.0 mcg/ml, serovar 14, strain BOONE
[17] = 8.0 mcg/ml, serovar 14, strain P-39
[18] = 16.0 mcg/ml, serovar 3, strain 7-17
[19] = 16.0 mcg/ml, serovar 3, strain 9-75
[20] = 16.0 mcg/ml, serovar 3, strain 12-1
[21] = 16.0 mcg/ml, serovar 3, strain 971-8
[22] = 16.0 mcg/ml, serovar 4, strain 5-13
[23] = 16.0 mcg/ml, serovar 4, strain 7-55
[24] = 16.0 mcg/ml, serovar 4, strain 8-50
[25] = 16.0 mcg/ml, serovar 4, strain TMC1463
[26] = 16.0 mcg/ml, serovar 9, strain 2-10
[27] = 16.0 mcg/ml, serovar 9, strain 6-38
[28] = 16.0 mcg/ml, serovar 9, strain 7-25
[29] = 16.0 mcg/ml, serovar 9, strain 1784-286
[30] = 16.0 mcg/ml, serovar 14, strain 7-3
[31] = 16.0 mcg/ml, serovar 14, strain 7-43
[32] = 16.0 mcg/ml, serovar 14, strain BOONE
[33] = 16.0 mcg/ml, serovar 14, strain P-39

O=C1C(NC2CCCCCCC2)=CC(=O)c2ncccc21 [CQQ, 6-cyclo octylamino-5,8-quinoline quinone]
Dose comparison, 20 vs 10 mg/kg ([1]; 20 mg/kg vs 10 mg/kg): The dose of 20 mg/kg is better than 10 mg/kg dose | Inhibitory activity, reduction of CFU counts from spleens and lungs ([1]; 10 or 20 mg/kg, FIGS. 3 and 4): considerable inhibitory activity | Duration of statistically significant differences in CFU counts ([1]; 10 or 20 mg/kg, spleens and lungs (P 0.05)): up to 6 weeks | Effect in lung vs spleen ([1]; FIG. 4 vs FIG. 3): more pronounced in the lung (FIG. 4) than in the spleen | Day maximum GI achieved (M. intracellulare; [2]): 2 days | Maximum GI (M. intracellulare; [2]): 16 | Day maximum GI achieved (M. intracellulare; [3]): 2 days | Maximum GI (M. intracellulare; [3]): 22 | Day maximum GI achieved (M. intracellulare; [4]): 2 days | Maximum GI (M. intracellulare; [4]): 4 | Day maximum GI achieved (M. intracellulare; [5]): 3 days | Maximum GI (M. intracellulare; [5]): 20 | Day maximum GI achieved (M. intracellulare; [6]): 1 days | Maximum GI (M. intracellulare; [6]): 14 | Day maximum GI achieved (M. intracellulare; [7]): 2 days | Maximum GI (M. intracellulare; [7]): 7 | Day maximum GI achieved (M. intracellulare; [8]): 2 days | Maximum GI (M. intracellulare; [8]): 15 | Day maximum GI achieved (M. intracellulare; [9]): 1 days | Maximum GI (M. intracellulare; [9]): 6 | Day maximum GI achieved (M. intracellulare; [10]): 1 days | Maximum GI (M. intracellulare; [10]): 14 | Day maximum GI achieved (M. intracellulare; [11]): 1 days | Maximum GI (M. intracellulare; [11]): 13 | Day maximum GI achieved (M. intracellulare; [12]): 4 days | Maximum GI (M. intracellulare; [12]): 33 | Day maximum GI achieved (M. intracellulare; [13]): 1 days | Maximum GI (M. intracellulare; [13]): 9 | Day maximum GI achieved (M. intracellulare; [14]): 2 days | Maximum GI (M. intracellulare; [14]): 5 | Day maximum GI achieved (M. intracellulare; [15]): 1 days | Maximum GI (M. intracellulare; [15]): 1 | Day maximum GI achieved (M. intracellulare; [16]): 1 days | Maximum GI (M. intracellulare; [16]): 13 | Day maximum GI achieved (M. intracellulare; [17]): 1 days | Maximum GI (M. intracellulare; [17]): 21 | Inhibition of the strains (M. intracellulare; 16.0 and 8.0 mcg/ml): Complete inhibition | Day maximum GI achieved (M. intracellulare; [18]): 1 days | Maximum GI (M. intracellulare; [18]): 5 | Day maximum GI achieved (M. intracellulare; [19]): 1 days | Maximum GI (M. intracellulare; [19]): 14 | Day maximum GI achieved (M. intracellulare; [20]): 2 days | Maximum GI (M. intracellulare; [20]): 6 | Day maximum GI achieved (M. intracellulare; [21]): 1 days | Maximum GI (M. intracellulare; [21]): 8 | Day maximum GI achieved (M. intracellulare; [22]): 1 days | Maximum GI (M. intracellulare; [22]): 4 | Day maximum GI achieved (M. intracellulare; [23]): 2 days | Maximum GI (M. intracellulare; [23]): 4 | Day maximum GI achieved (M. intracellulare; [24]): 1 days | Maximum GI (M. intracellulare; [24]): 6 | Day maximum GI achieved (M. intracellulare; [25]): 1 days | Maximum GI (M. intracellulare; [25]): 5 | Day maximum GI achieved (M. intracellulare; [26]): 1 days | Maximum GI (M. intracellulare; [26]): 12 | Day maximum GI achieved (M. intracellulare; [27]): 1 days | Maximum GI (M. intracellulare; [27]): 6 | Day maximum GI achieved (M. intracellulare; [28]): 1 days | Maximum GI (M. intracellulare; [28]): 7 | Day maximum GI achieved (M. intracellulare; [29]): 1 days | Maximum GI (M. intracellulare; [29]): 5 | Day maximum GI achieved (M. intracellulare; [30]): 1 days | Maximum GI (M. intracellulare; [30]): 4 | Day maximum GI achieved (M. intracellulare; [31]): 1 days | Maximum GI (M. intracellulare; [31]): 9 | Day maximum GI achieved (M. intracellulare; [32]): 1 days | Maximum GI (M. intracellulare; [32]): 7 | Day maximum GI achieved (M. intracellulare; [33]): 1 days | Maximum GI (M. intracellulare; [33]): 22 | Effect on GI rates of all M. intracellulare strains (M. intracellulare; both concentrations (16.0 and 8.0 mcg/ml)): dramatic decrease in GI rates for all M. intracellulare strains | Counts per minute (3H thymidine uptake) (Mycobacterium leprae; Sample I, 5 NG/ML): 2.4 COUNTS PER MINUTE | Counts per minute (3H thymidine uptake) (Mycobacterium leprae; Sample I, 25 NG/ML): 93 COUNTS PER MINUTE | Counts per minute (3H thymidine uptake) (Mycobacterium leprae; Sample I, 50 NG/ML): 93 COUNTS PER MINUTE | Counts per minute (3H thymidine uptake) (Mycobacterium leprae; Sample I, 100 NG/ML): 84 COUNTS PER MINUTE | Counts per minute (3H thymidine uptake) (Mycobacterium leprae; Sample I, CQQ 10 NG/ML): 2.3 COUNTS PER MINUTE | Counts per minute (3H thymidine uptake) (Mycobacterium leprae; Sample II, 5 NG/ML): 6 COUNTS PER MINUTE | Counts per minute (3H thymidine uptake) (Mycobacterium leprae; Sample II, 25 NG/ML): 69 COUNTS PER MINUTE | Counts per minute (3H thymidine uptake) (Mycobacterium leprae; Sample II, 50 NG/ML): 76 COUNTS PER MINUTE | Counts per minute (3H thymidine uptake) (Mycobacterium leprae; Sample II, 100 NG/ML): 76 COUNTS PER MINUTE | Counts per minute (3H thymidine uptake) (Mycobacterium leprae; Sample II, 200 NG/ML): 91 COUNTS PER MINUTE | Counts per minute (3H thymidine uptake) (Mycobacterium leprae; Sample II, CQQ 10 NG/ML): 13 COUNTS PER MINUTE | Counts per minute (3H thymidine uptake) (Mycobacterium leprae; Sample III, 5 NG/ML): 2 COUNTS PER MINUTE | Counts per minute (3H thymidine uptake) (Mycobacterium leprae; Sample III, 25 NG/ML): 37 COUNTS PER MINUTE | Counts per minute (3H thymidine uptake) (Mycobacterium leprae; Sample III, CQQ 10 NG/ML): 2 COUNTS PER MINUTE | Activity with another strain of M. leprae (Mycobacterium leprae; another strain): even greater activity | Antileprosy activity (Mycobacterium leprae; conclusion from Table 3): considerable antileprosy activity | Inhibition of 3H thymidine uptake (Mycobacterium leprae; two strains of M. leprae): significant inhibition
